How the values were obtained:
S275W HSC70-NBD = target: T1, S275W HSC70-NBD (Homo sapiens, UniProt P11142, S275W); assay: SPR binding to S275W HSC70-NBD mutant
T1 construct: WT HSPA8 (HSC70) residues 1 to 381; GST (N, cleaved yes); made in house; host or cells: E. coli BL21-AI (expressed as described for FL-HSP72)
Method: (§1) SPR experiments were carried out using a Biacore T200 (GE Healthcare) at 25 °C. Amine coupling chemistry was used to immobilise the HSC70 NBD domain and S275W, S275F and S275A HSC70-NBD mutant proteins on a carboxymethyl-5′-dextran (CM5) sensor chip. The chip’s surface was activated with a 10 min injection of a 1:1 mixture of 100 mM N-hydroxysuccinimide and 400 mM 1-ethyl-3-(3-dimethylaminopropyl)-carbodiimide. […] The remaining activated groups on the surface were blocked with a 7 min injection of 1 M ethanolamine at pH 8.5. […] Flow cell one was left unmodified as the reference surface.
(§2) In addition, a DMSO correction curve, prepared as described in the GE manual, was used to correct the effects of the solvent on signal intensity. Raw SPR data from the single point screen was processed and analysed using Pipeline Pilot version 8.0.1.500[37]. Firstly, the reported binding level for each fragment was corrected by subtraction of the buffer blank.
(§3) The initial fragment hits were further investigated in a three-point concentration-response experiment against freshly immobilised WT HSC70-NBD and the S275W HSC70-NBD mutants using the same experimental protocol as for the primary screen. Compound dilutions of 50, 100 and 200 μM were generated using the ECHO 550.

S275F HSC70-NBD = target: T2, S275F HSC70-NBD (Homo sapiens, UniProt P11142, S275F); assay: SPR binding to S275F HSC70-NBD mutant
T2 construct: WT HSPA8 (HSC70) residues 1 to 381; GST (N, cleaved yes); made in house; host or cells: E. coli BL21-AI (expressed as described for FL-HSP72)
Method: SPR experiments were carried out using a Biacore T200 (GE Healthcare) at 25 °C. Amine coupling chemistry was used to immobilise the HSC70 NBD domain and S275W, S275F and S275A HSC70-NBD mutant proteins on a carboxymethyl-5′-dextran (CM5) sensor chip. The chip’s surface was activated with a 10 min injection of a 1:1 mixture of 100 mM N-hydroxysuccinimide and 400 mM 1-ethyl-3-(3-dimethylaminopropyl)-carbodiimide. The HSC70 proteins (70 μg/mL in 10 mM sodium acetate, 750 μM ADP, pH 5.0) were immobilised on the surface over a 10 min injection period. The remaining activated groups on the surface were blocked with a 7 min injection of 1 M ethanolamine at pH 8.5. For all the above procedures the flow rate was maintained at 10 μL/min and a 1x phosphate buffered saline running buffer (PBS running buffer: 10 mM NaHPO4/NaH2PO4 pH 7.4, 2.7 mM KCl, 137 mM NaCl) was used during immobilisation. Approximately ~13,000 response units (RU) of protein could be routinely captured on the CM5 chip on flow cells two to four. Flow cell one was left unmodified as the reference surface. Our in-house fragment library of 1962 fragments at a stock concentration of 100 mM in 100% (v/v) was screened. SPR screening plates were prepared by dispensing of 0.1 μL of each fragment in 384-well polypropylene V-bottomed plates (Greiner) using an ECHO 550 acoustic liquid dispenser (Labcyte) followed by addition of fresh DMSO and running buffer to give a final fragment concentration of 125 μM in 5% (v/v) DMSO in an assay volume of 80 μL.
The full fragment screen was carried out against freshly immobilised WT-HSC70 NBD and the S275W and S275F HSC70-NBD mutants, using the same experimental setting as for the clean screen and a final fragment concentration of 125 μM. Injections of running buffer and of 125 μM adenosine, which was used as a positive control to monitor the health of the protein, were carried out at intervals of 35 cycles throughout the screen. In addition, a DMSO correction curve, prepared as described in the GE manual, was used to correct the effects of the solvent on signal intensity. Raw SPR data from the single point screen was processed and analysed using Pipeline Pilot version 8.0.1.500[37]. Firstly, the reported binding level for each fragment was corrected by subtraction of the buffer blank. Secondly, the values were corrected for the molecular weight of each fragment and the binding was normalised to the binding level observed for the closest adenosine control. […] However, fragments with a binding level exceeding two times the theoretical Rmax were excluded, as we considered this an indication of superstoichiometric binding. Finally, fragments showing preferred binding to wild-type HSC70-NBD versus the HSC70-NBD mutants with a blocked adenine sub pocket were identified by plotting the binding levels of the fragments to wild-type HSC70-NBD against the binding levels of the respective mutant HSC70-NBD variants and added to the primary hit list. In total this procedure yielded 54 initial fragment hits.

HSP70 = target: HSP70; design: method as in PMID 19256508; conditions: read-out: SPR Kd; cited from earlier work
WT HSC70-NBD = target: T3, WT HSC70-NBD (Homo sapiens, UniProt P11142); assay: SPR binding to wild-type HSC70-NBD
T3 construct: WT HSPA8 (HSC70) residues 1 to 381; GST (N, cleaved yes); made in house; host or cells: E. coli BL21-AI (expressed as described for FL-HSP72)
Method: as §1, §2, §3

HSP72 = target: T4, HSP72 (Homo sapiens, UniProt P0DMV8); assay: Ligand observed NMR (CPMG) binding to HSP72 with ATP competition; conditions: 0.5 mM compound, 20 µM HSP72, ± 100 µM ATP; 1D CPMG
T4 construct: 6xHis followed by HRV 3C protease site (N); made in house; host or cells: E. coli BL21-AI
Method: Ligand observed NMR experiments
NMR experiments were conducted at a 1H frequency of 500 MHz using a Bruker Avance 500 spectrometer (Bruker, […]) equipped with a 1.7 mm TXI probe. All data were acquired and processed using Bruker Topspin 3.2. The Relaxation edited 1H-NMR spectrum was acquired at 295K using the CPMG sequence with a spin-lock time of 600 ms. The water signal was suppressed using presaturation during relaxation delay (2 s) and by using the Watergate sequence subsequent to the CPMG sequence. For each spectrum 64 transients were acquired. The three samples for which spectra were collected consisted of 50 mM phosphate buffer at pH 7.5, 10% (v/v) D2O and 0.5 mM compound 30, 0.5 mM compound 30 in the presence of 20 µM HSP72, and 0.5 mM compound 30 in the presence of 20 µM HSP72 and 100 µM ATP respectively (see Figure S 8).

T4 sequence (P0DMV8 whole entry): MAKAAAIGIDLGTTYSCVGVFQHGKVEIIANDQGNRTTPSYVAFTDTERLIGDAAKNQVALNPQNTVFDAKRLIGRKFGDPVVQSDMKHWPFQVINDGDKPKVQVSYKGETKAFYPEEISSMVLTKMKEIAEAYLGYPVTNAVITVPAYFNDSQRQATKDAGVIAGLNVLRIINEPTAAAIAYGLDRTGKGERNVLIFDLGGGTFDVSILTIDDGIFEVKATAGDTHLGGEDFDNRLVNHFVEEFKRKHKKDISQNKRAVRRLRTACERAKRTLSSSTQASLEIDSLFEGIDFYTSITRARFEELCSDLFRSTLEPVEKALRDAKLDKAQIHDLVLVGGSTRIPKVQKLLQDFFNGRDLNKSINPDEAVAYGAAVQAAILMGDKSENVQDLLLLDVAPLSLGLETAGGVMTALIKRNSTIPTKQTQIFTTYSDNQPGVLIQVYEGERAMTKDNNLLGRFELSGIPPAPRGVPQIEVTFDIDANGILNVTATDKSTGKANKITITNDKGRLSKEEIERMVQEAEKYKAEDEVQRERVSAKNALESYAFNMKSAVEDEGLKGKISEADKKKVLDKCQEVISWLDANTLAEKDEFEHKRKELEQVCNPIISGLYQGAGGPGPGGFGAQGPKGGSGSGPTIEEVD
T3 sequence (P11142 1-381): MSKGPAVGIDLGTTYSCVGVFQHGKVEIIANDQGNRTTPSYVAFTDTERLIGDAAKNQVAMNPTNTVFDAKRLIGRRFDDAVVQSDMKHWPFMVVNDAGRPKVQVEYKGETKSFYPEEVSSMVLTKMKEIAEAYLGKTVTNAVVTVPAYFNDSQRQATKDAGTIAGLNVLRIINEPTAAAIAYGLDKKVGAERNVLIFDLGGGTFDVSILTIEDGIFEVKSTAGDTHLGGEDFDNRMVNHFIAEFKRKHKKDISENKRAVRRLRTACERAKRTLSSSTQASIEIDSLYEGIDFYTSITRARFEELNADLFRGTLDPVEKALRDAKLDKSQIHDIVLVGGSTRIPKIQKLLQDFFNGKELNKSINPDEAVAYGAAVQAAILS
T1 sequence (P11142 1-381 S275W): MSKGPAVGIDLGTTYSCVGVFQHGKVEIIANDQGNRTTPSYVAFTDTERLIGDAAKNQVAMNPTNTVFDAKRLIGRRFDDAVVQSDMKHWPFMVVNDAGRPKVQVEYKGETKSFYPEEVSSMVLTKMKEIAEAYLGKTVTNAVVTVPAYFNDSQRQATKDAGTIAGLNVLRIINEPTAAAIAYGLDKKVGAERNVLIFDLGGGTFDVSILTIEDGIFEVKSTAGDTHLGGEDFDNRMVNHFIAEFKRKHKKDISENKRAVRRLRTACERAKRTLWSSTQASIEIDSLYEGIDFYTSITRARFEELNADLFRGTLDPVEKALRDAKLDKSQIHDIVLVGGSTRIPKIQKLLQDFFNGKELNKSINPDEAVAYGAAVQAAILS
T2 sequence (P11142 1-381 S275F): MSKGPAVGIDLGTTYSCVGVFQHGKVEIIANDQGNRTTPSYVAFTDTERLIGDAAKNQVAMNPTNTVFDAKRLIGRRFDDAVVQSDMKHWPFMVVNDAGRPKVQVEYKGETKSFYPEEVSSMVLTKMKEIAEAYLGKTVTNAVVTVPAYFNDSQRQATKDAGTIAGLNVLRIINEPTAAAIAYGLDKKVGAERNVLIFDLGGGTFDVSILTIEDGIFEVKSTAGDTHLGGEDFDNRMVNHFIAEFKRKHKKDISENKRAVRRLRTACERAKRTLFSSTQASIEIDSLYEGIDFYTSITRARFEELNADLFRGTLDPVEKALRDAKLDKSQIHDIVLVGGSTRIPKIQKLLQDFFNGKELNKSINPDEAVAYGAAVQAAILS

Row | binding to S275W HSC70-NBD mutant (in words) (S275W HSC70-NBD) | binding to S275F HSC70-NBD mutant (in words) (S275F HSC70-NBD) | Kd (WT HSC70-NBD; SPR, 25 °C, mean ± standard deviation or standard error, triplicate unless marked duplicate/single) | LE (ligand efficiency) (WT HSC70-NBD; calculated using the SPR Kd on WT HSC70-NBD) | Kd S275W HSC70-NBD (S275W HSC70-NBD; single measurement) | binding to HSP72 by ligand observed NMR (HSP72) | Structure (SMILES) | Kd (HSP70)
1 | abolished binding | abolished binding |  |  |  |  | N#Cc1ccc(COC[C@H]2O[C@@H](n3c(NCc4ccc(Cl)c(Cl)c4)nc4c(N)ncnc43)[C@H](O)[C@@H]2O)cc1 [Compound 1, VER-155008] | 0.3 µM
2 |  |  | 75 µM | 0.20 | No binding | bind in the ATP-binding site | OC[C@H]1C[C@@H](Nc2ncnc3cccc(OCc4ccccn4)c23)[C@H](O)[C@@H]1O [Compound 30] | 

— paper PMC5052559, “A fragment-based approach applied to a highly flexible target: Insights and challenges towards the inhibition of HSP70 isoforms” (Scientific Reports, 2016)
